# In patent US6544541B1, “Devices and compounds for treating arterial restenosis” (Cardiovascular Solutions, Inc., priority 1999, dated 2003):
# Experiments:
# [1] = tested on: H4IIE hepatoma cells; assay: flow cytometry, bromodeoxyuridine incorporation in proliferating cells; type: cell-based; details: 25 μM MIBG, 48 hours; FIG. 4
# Method: Additional verification that MIBG blocked cell proliferation was obtained using flow cytometry analysis. Proliferating H4IIE cells (<40% confluent) were incubated for 48 hours in the presence or absence (untreated control or containing MIBA) of 25 μM MIBG. The cells were pulse labeled with bromodeoxyuridine (BrdU) 2 hours before harvest to label replicating DNA. Cells were released by trypsinization, collected by centrifugation and permeabilized with Triton X-100 (1%). Replicated DNA was labeled with an anti-BrdU antibody conjugated to FITC (fluorescein isothiocyanate), while total DNA was labeled with propidium iodide. The FITC and propidium iodide labels were detected at 514 nm and 600 nm, respectively, with a Coulter flow cytometer™ (excitation wavelength 488 nm), and number of cells containing these fluors were quantified. The data were plotted as cells with propidium iodide versus cells with BrdU. […] To summarize, the results described above indicate that MIBG is a potent inhibitor of cell proliferation. Furthermore, the cellular process affected by MIBG is active throughout the cell cycle. This conclusion is based on the fact that there is no accumulation of cells at a specific phase of the cell cycle. In addition, it is of note that there is no apparent decrease in cell number or an increase in smaller cells, both characteristics of cell death.
# [2] = tested on: H4IIE hepatoma cells; assay: MTT staining of viable cells (cell number); type: cell-based
# Method: In this assay, H4IIE cells are plated on 96-well dishes, and incubated in standard growth medium. Separate plates were prepared for comparing the effects of MIBG after 2 or 4 days. At those time points, 200 μl of 5 mg/ml MTT was added to each well, and the cells were incubated an additional 4 hours. The medium was removed and cells were treated with acidified isopropanol and the absorbance read at 570 nm. Increased absorbance is indicative of increases in cell number.
substance,measurement,setting,value
meta-iodobenzylguanidine [MIBG],bromodeoxyuridine incorporation (DNA synthesis),[1],no bromodeoxyuridine incorporation is observed
same,effect on cell number,"[2]; 20 μM, 2 or 4 days, FIG. 3",effective in preventing increases in cell number
same,MTT staining,"[2]; 200 μM, up to 96 hours",60 % of control values
